Reference: publication PMC6368365, “Didehydro-Cortistatin A Inhibits HIV-1 by Specifically Binding to the Unstructured Basic Region of Tat” (mBio, 2019)

How the values were obtained:
[1] = set-up: method as in PMID 22817991, PMID 29045830, PMID 25613133; settings: cited from earlier work
[2] = set-up: method as in PMID 22817991, PMID 29045830, PMID 25613133; settings: mice; cited from earlier work
HIV Tat HXB3 = target: T1, HIV Tat HXB3 (Human immunodeficiency virus type 1 group M subtype B, UniProt P69697); experiment: Isothermal titration calorimetry of dCA binding to Tat; set-up: species or system HIV-1
T1 construct: pTatC6H-1 (NIH AIDS Reagent Program) plasmid encoding C-terminal 6xHistidine Tat1-86 (HXB3, subtype B); made in house; host or cells: E. coli BL21 (plasmid pTatC6H-1, NIH AIDS Reagent Program)
T1 sequence (P69697 whole entry): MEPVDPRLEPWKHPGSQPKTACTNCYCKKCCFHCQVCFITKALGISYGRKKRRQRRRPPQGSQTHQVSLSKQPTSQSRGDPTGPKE
Description: Next, we studied the direct interaction of Tat with dCA using ITC. After gradual titration of Tat with dCA in the ITC cell, the integrated heat data of the dCA-Tat interaction were collected (Fig. 1G). This ITC titration curve fitted well with a single-site binding process with a nonlinear least-squares regression, allowing the determination of the association constant (Ka) and entropy (ΔS) and enthalpy (ΔH) changes, as well as the average number of binding sites (N). We determined a 1:1 binding stoichiometry with a Ka of ∼(9.39 ± 1.7) × 10^6 M^−1 (dissociation constant [Kd] = 100 nM). Moreover, dCA binds to Tat at 25°C with a negative (favorable) enthalpy of −3.5 ± 0.1 kcal mol^−1 and positive (favorable) entropy of +20.0 ± 0.5 cal mol^−1 K^−1. The favorable values of ΔH and ΔS are consistent with the characteristics of a combination of van der Waals, hydrophobic, and electrostatic interactions in the binding process. The difference between Tat/dCA affinity (ITC, 100 nM) and dCA inhibitory activity in cell-based assays (0.6 to 2 nM) (Table 2) ([10]) could be the result of the nature of the Tat-TAR feedback loop that amplifies activity in vivo; especially since the amount of Tat in vivo after infection is very low ([24]).
A detailed protocol for ITC is provided in Text S1.
Isothermal titration calorimetry. The measurements were conducted at 25 °C on a Microcal VP-ITC (Microcal, Inc.; Northampton MA). Titrations of HIV Tat HXB3 and HIV-1 TAR with dCA (or peptide, ^46SYGRKKRRQRRRPPQ^60) were done by injecting 250 μL into an isothermal sample chamber containing 1.5 mL HIV Tat HXB3 or HIV-1 TAR solution that was 10 μM in strand. Each experiment of this type was accompanied by the corresponding control experiment in which peptide or dCA injected into a solution of buffer alone. The duration of each injection was 8 s and the delay between the injections was 300 s and 180 s, the initial delay prior to the first injection was 300 s. Each injection generated a heat burst curve (microcalories/second vs. seconds) and the area under each curve was determined by integration [using the origin version 7.0 software (Microcal, Inc.; Northampton, MA)] to obtain the measure of the heat associated with that injection.

recombinant Tat = target: T2, recombinant Tat (Human immunodeficiency virus type 1 group M subtype B, UniProt P69697); experiment: DARTS assay (protection from proteinase K); format: binding, HIV-1; settings: 20 min room temperature, Western blot
T2 construct: pTatC6H-1 (NIH AIDS Reagent Program) plasmid encoding C-terminal 6xHistidine Tat1-86 (HXB3, subtype B); made in house; host or cells: E. coli BL21 (plasmid pTatC6H-1, NIH AIDS Reagent Program)
T2 sequence (P69697 whole entry): as above
Procedure: To confirm that dCA stabilizes Tat structure, we performed drug affinity responsive target stability (DARTS) assays to measure the protection against proteolysis conferred on the target protein by interaction with a small molecule. For this purpose, we incubated Tat with several concentrations of dCA and different concentrations of proteinase K (PK) for 20 min at room temperature. PK digests proteins preferably after hydrophobic, aliphatic, and aromatic residues. The protection was determined by Western blotting with an anti-His antibody (Fig. 5B). Tat alone was proportionally degraded with increasing concentrations of PK. […] Both the fluorescence assays and the DARTS assays support the notion that dCA stabilizes Tat protein.
dCA or an analog of dCA (analog 2) was incubated with 30 ng of recombinant Tat for 20 min at room temperature. Then PK (Ambion) was added at different concentrations. The remaining Tat was quantified by Western blotting using polyclonal anti-Tat antibodies (AIDS Reagent Program) at a 1:2,000 dilution.

SMILES: CN(C)C1CC23CCC4(O2)C(=CCC2(C)C(c5ccc6ccncc6c5)=CCC24)C=C3C(O)C1O (stereo not shown) [dCA, didehydro-cortistatin A]
- solubility in water [1]: very soluble in water
- bioavailability [2]: good bioavailability in mice
- Kd (HIV Tat HXB3): 100 nM
- enthalpy (ΔH) (HIV Tat HXB3; ITC, 25°C): -3.5 ± 0.1 kcal/mol
- entropy (ΔS) (HIV Tat HXB3; ITC, 25°C): +20.0 ± 0.5 cal mol^−1 K^−1
- association constant (Ka) (HIV Tat HXB3; ITC, 25°C, single-site fit): (9.39 ± 1.7) × 10^6 M^−1
- protection of Tat from proteinase K degradation (recombinant Tat): Tat degradation by PK was significantly reduced
